Data set [1] deals with Mycobacterium tuberculosis (strain H37Rv). Kind of data set: MABA minimum inhibitory concentration assay (aerobic/replicating). It is filed as cell-based. The note with it: M.tb H37Rv; for MIC90: Mycobacterium tuberculosis; for MIC90 / MIC90 MABA: aerobic/replicating, 90% inhibition of growth.
The test system is the same in data set [2]. Description: LORA minimum inhibitory concentration assay (low-oxygen/non-replicating). The note with it: M.tb H37Rv, 90% inhibition of growth.
Data set [3] has as its system VERO green monkey kidney cells. Kind of data set: VERO mammalian cell toxicity assay. It is filed as cell-based. Conditions: inhibition of growth of VERO green monkey kidney epithelial cells; for IC50: Chlorocebus sabaeus.
The nature of data set [4]: Microsomal stability, human liver microsomes. The format is in vitro ADME. The note with it: pH 7.4; for microsomal CLint at 1 μM: human liver microsomes, read-out: HLM Clint(mic). The method, then:
(§1) Assays were performed by WuXi AppTec (Shanghai) Co., Ltd. The test compounds (Table 4) (at 1 μM) were incubated at 37 °C with liver microsomes from human or CD-1 mice in the presence of a NADPH regenerating system and phosphate buffer (100 mM, pH 7.4) at 0.5 mg/mL microsomal protein (the positive controls were testosterone, propafenone, and diclofenac). Samples were removed at time intervals of 0, 5, 10, 20, 30, and 60 min and immediately mixed with cold CH3CN (containing 0.1 μg/mL of tolbutamide as an internal standard) and then centrifuged prior to analysis by LCMS/MS.
(In general: Liver microsomes are a subcellular fraction often used to study metabolism.)

The nature of data set [5]: Microsomal stability, mouse liver microsomes. It is filed as in vitro ADME. Conditions: for CLint scaled at 1 μM / half-life at 1 μM: CD-1, mouse, microsomes, pH 7.4; for microsomal CLint at 1 μM: CD-1, pH 7.4, mouse liver microsomes, read-out: MLM Clint(mic). As to the method:
as §1

Setting [6] is: human/mouse liver microsomes not distinguished, read-out: T½ values (microsomal stability).

Values after ≈ are worked out from the molar mass of the structure shown.

A word on the MIC90: it is an inhibitory concentration at the 90% level, which refers to growth in some studies and to a panel of isolates in others. The term melting point denotes the temperature, or range, at which the solid turns liquid. One may read the IC50 as the concentration that inhibits the measured activity by half. Molecule `COc1ccccc1-c1cnn2c(NCc3ccccn3)cc(-c3ccccc3)nc12` [Compound 12, 3-(2-Methoxyphenyl)-5-phenyl-N-(pyridin-2-ylmethyl)pyrazolo[1,5-a]pyrimidin-7-amine] registered a melting point of 169 to 171 °C. In data set [1], this molecule displayed an MIC90 of over 32 mg/L. For the same molecule, the “MIC90 LORA” value in data set [2] was over 32 mg/L. Also, the IC50 in data set [3] is over 32 mg/L.
For `CN1CCN(c2ccnc(CNc3cc(-c4ccccc4)nc4c(-c5ccc(F)cc5)cnn34)c2)CC1` [Compound 65, 3-(4-Fluorophenyl)-N-((4-(4-methylpiperazin-1-yl)pyridin-2-yl)methyl)-5-phenylpyrazolo[1,5-a]pyrimidin-7-amine], the melting point was 203 to 205 °C. The MIC90 in data set [1] was determined as 0.09 mg/L (≈ 0.182 µM). The “MIC90 LORA” value in data set [2] stood at 0.73 mg/L (≈ 1.48 µM). For the same molecule, inhibition in data set [3] was half-maximal at 10.7 mg/L (≈ 21.7 µM) (IC50).
As to `CCc1cc(NCc2ccccn2)n2ncc(-c3ccc(F)cc3)c2n1` [Compound 23, 5-Ethyl-3-(4-fluorophenyl)-N-(pyridin-2-ylmethyl)pyrazolo[1,5-a]pyrimidin-7-amine], the melting point is 137 to 138 °C. The molecule further registered an MIC90 in data set [1] of 1.4 mg/L (≈ 4.03 µM). For the same molecule, the “MIC90 LORA” value in data set [2] turned out to be 0.45 mg/L (≈ 1.3 µM). The same molecule gave an IC50 in data set [3] of 14.1 mg/L (≈ 40.6 µM).
For `COc1cccc(CNc2cc(-c3ccccc3)nc3c(-c4ccc(F)cc4)cnn23)n1` [Compound 48, 3-(4-Fluorophenyl)-N-((6-methoxypyridin-2-yl)methyl)-5-phenylpyrazolo[1,5-a]pyrimidin-7-amine] the same measures were 163 to 165 °C, over 32 mg/L, over 32 mg/L and over 32 mg/L.
`COc1cccc(-c2cc(NCc3ccccn3)n3ncc(-c4ccc(F)cc4)c3n2)c1` [Compound 31, 3-(4-Fluorophenyl)-5-(3-methoxyphenyl)-N-(pyridin-2-ylmethyl)pyrazolo[1,5-a]pyrimidin-7-amine] showed an MIC90 in data set [1] of 3.9 mg/L (≈ 9.17 µM). In addition, the “MIC90 LORA” value in data set [2] is 1.7 mg/L (≈ 4 µM). This molecule also showed an IC50 in data set [3] of over 32 mg/L.
`Fc1ccc(-c2cnn3c(NCc4cc(Cl)ccn4)cc(-c4ccccc4)nc23)cc1` [Compound 60, N-((4-Chloropyridin-2-yl)methyl)-3-(4-fluorophenyl)-5-phenylpyrazolo[1,5-a]pyrimidin-7-amine] had a melting point of 220 to 222 °C. In addition, the “anti-mycobacterial activity in words” value in data set [1] (MABA/LORA) was “inactive”. This molecule displayed an MIC90 in data set [1] of over 32 mg/L. For the same molecule, the “MIC90 LORA” value in data set [2] is over 32 mg/L. Moreover, in data set [3], the IC50 is over 32 mg/L.
On to `Fc1ccc(-c2cnn3c(NCc4ccccn4)ccnc23)cc1` [Compound 22, 3-(4-Fluorophenyl)-N-(pyridin-2-ylmethyl)pyrazolo[1,5-a]pyrimidin-7-amine], for which, in data set [1], the MIC90 is 0.89 mg/L (≈ 2.79 µM). In data set [2], the “MIC90 LORA” value was 0.39 mg/L (≈ 1.22 µM). The same molecule registered an IC50 in data set [3] of over 32 mg/L.
Turning to `Fc1ccc(-c2cc(NCc3ccccn3)n3ncc(-c4ccc(F)cc4)c3n2)cc1` [Compound 32, 3,5-Bis(4-fluorophenyl)-N-(pyridin-2-ylmethyl)pyrazolo[1,5-a]pyrimidin-7-amine], in data set [1], the MIC90 came to 3 mg/L (≈ 7.26 µM). Besides, the “MIC90 LORA” value in data set [2] worked out at 0.22 mg/L (≈ 0.532 µM). In data set [3], the IC50 was over 32 mg/L.
What is called CLint scaled is the capacity of the preparation to metabolise the compound, expressed as a volume cleared per time. In data set [1], `Fc1ccc(-c2cnn3c(NCc4ccccn4)cc(C4=CCCC4)nc23)cc1` [Compound 26, 5-(Cyclopent-1-en-1-yl)-3-(4-fluorophenyl)-N-(pyridin-2-ylmethyl)pyrazolo[1,5-a]pyrimidin-7-amine] had an MIC90 of 0.89 mg/L (≈ 2.31 µM). Further, the CLint scaled at 1 μM came to 1.92 L/h/kg in data set [4] (human, microsomes) and 8.4 L/h/kg in data set [5]. The half-life at 1 μM in data set [4] (human, microsomes) is 39 min; in data set [4] (setting [6]), under 85 min; in data set [5] it was 39 min. For the same molecule, the microsomal CLint at 1 μM in data set [4] and in data set [5] was 35 µL/min/mg each time. Moreover, the “MIC90 LORA” value in data set [2] amounted to 0.23 mg/L (≈ 0.597 µM). Further, the IC50 in data set [3] was over 32 mg/L.
Consider `Fc1ccc(-c2cnn3c(NCc4ccccn4)cc(-c4ccncc4)nc23)cc1` [Compound 40, 3-(4-Fluorophenyl)-N-(pyridin-2-ylmethyl)-5-(pyridin-4-yl)pyrazolo[1,5-a]pyrimidin-7-amine], for which the MIC90 in data set [1] was over 32 mg/L. The “MIC90 LORA” value in data set [2] was found to be 28 mg/L (≈ 70.6 µM). For the same molecule, the IC50 in data set [3] was over 32 mg/L.
`Cc1ccc(-c2cc(NCc3ccccn3)n3ncc(-c4ccc(F)cc4)c3n2)cc1` [Compound 33, 3-(4-Fluorophenyl)-N-(pyridin-2-ylmethyl)-5-(p-tolyl)pyrazolo[1,5-a]pyrimidin-7-amine] returned an MIC90 in data set [1] of 3.7 mg/L (≈ 9.04 µM). Also, the “MIC90 LORA” value in data set [2] came out at 5.0 mg/L (≈ 12.2 µM). In addition, the IC50 in data set [3] was over 32 mg/L.
Consider `Fc1ccc(-c2cnn3c(NCc4ccccn4)cc(-c4ccc(C(F)(F)F)cc4)nc23)cc1` [Compound 37, 3-(4-Fluorophenyl)-N-(pyridin-2-ylmethyl)-5-(4-(trifluoromethyl)phenyl)pyrazolo[1,5-a]pyrimidin-7-amine], for which the MIC90 in data set [1] was 3.8 mg/L (≈ 8.2 µM). Further, the “MIC90 LORA” value in data set [2] stood at 3.6 mg/L (≈ 7.77 µM). Also, the IC50 in data set [3] is over 32 mg/L.
For `CN(C)CCCc1ccc(CNc2cc(-c3ccccc3)nc3c(-c4ccc(F)cc4)cnn23)nc1` [Compound 56, N-((5-(3-(dimethylamino)propyl)pyridin-2-yl)methyl)-3-(4-fluorophenyl)-5-phenylpyrazolo[1,5-a]pyrimidin-7-amine] the same measures were 5.8 mg/L (≈ 12.1 µM), 6.1 mg/L (≈ 12.7 µM) and 20.3 mg/L (≈ 42.2 µM).
In data set [1], `COc1ccccc1-c1cc(NCc2ccccn2)n2ncc(-c3ccc(F)cc3)c2n1` [Compound 29, 3-(4-Fluorophenyl)-5-(2-methoxyphenyl)-N-(pyridin-2-ylmethyl)pyrazolo[1,5-a]pyrimidin-7-amine] showed an MIC90 of 13.3 mg/L (≈ 31.3 µM). Also, the “MIC90 LORA” value in data set [2] stood at 9.0 mg/L (≈ 21.2 µM). For the same molecule, in data set [3], the IC50 was over 32 mg/L.
In turn, `CN(C)CC#Cc1ccc(CNc2cc(-c3ccccc3)nc3c(-c4ccc(F)cc4)cnn23)nc1` [Compound 55, N-((5-(3-(Dimethylamino)prop-1-yn-1-yl)pyridin-2-yl)methyl)-3-(4-fluorophenyl)-5-phenylpyrazolo[1,5-a]pyrimidin-7-amine] had an MIC90 in data set [1] of 1.9 mg/L (≈ 3.99 µM). In data set [4] (human, microsomes), this molecule yielded a CLint scaled at 1 μM of under 0.516 L/h/kg and a half-life at 1 μM of over 145 min. Further, the microsomal CLint at 1 μM in data set [4] was under 9.6 µL/min/mg. The “MIC90 LORA” value in data set [2] was found to be 5.5 mg/L (≈ 11.5 µM). In addition, in data set [5], the CLint scaled at 1 μM came to 7.26 L/h/kg, the half-life at 1 μM worked out at 45.4 min and the microsomal CLint at 1 μM is 31 µL/min/mg. Moreover, the IC50 in data set [3] was over 32 mg/L.
In data set [1], `Fc1ccc(-c2cnn3c(NCc4ccccn4)cc(C4=CCCCC4)nc23)cc1` [Compound 27, 5-(Cyclohex-1-en-1-yl)-3-(4-fluorophenyl)-N-(pyridin-2-ylmethyl)pyrazolo[1,5-a]pyrimidin-7-amine] had an MIC90 of 0.62 mg/L (≈ 1.55 µM). Moreover, the intrinsic clearance (CLint scaled) at 1 μM in data set [4] (human, microsomes) worked out at 1.02 L/h/kg; in data set [5], 7.2 L/h/kg. For the same molecule, the half-life at 1 μM in data set [4] (human, microsomes) is 75 min; in data set [4] (setting [6]) it was under 85 min; in data set [5], 49 min. The microsomal CLint at 1 μM in data set [4] was 19 µL/min/mg; in data set [5], 30 µL/min/mg. In data set [2], the “MIC90 LORA” value was 0.44 mg/L (≈ 1.1 µM). Further, the IC50 in data set [3] is over 32 mg/L.
Take “3-(4-Fluorophenyl)-N-((6-(4-methylpiperidin-1-yl)pyridin-2-yl)methyl)-5-phenylpyrazolo[1,5-a]pyrimidin-7-amine [Compound 51]”: in data set [1], the “MIC90 MABA” value came to 0.94 mg/L. In data set [2], the “MIC90 LORA” value was 0.85 mg/L. The “IC50 VERO” value in data set [3] turned out to be 11.8 mg/L.
The molecule `CN(C)CCOc1ccc(CNc2cc(-c3ccccc3)nc3c(-c4ccc(F)cc4)cnn23)nc1` [Compound 57, N-((5-(2-(Dimethylamino)ethoxy)pyridin-2-yl)methyl)-3-(4-fluorophenyl)-5-phenylpyrazolo[1,5-a]pyrimidin-7-amine] registered an MIC90 in data set [1] of 3.6 mg/L (≈ 7.46 µM). The “MIC90 LORA” value in data set [2] turned out to be 1.9 mg/L (≈ 3.94 µM). Also, in data set [3], the midpoint of inhibition, the IC50, lay at 24 mg/L (≈ 49.7 µM).
`Fc1ccc(-c2cnn3c(NCc4ccccn4)cc(-c4ccco4)nc23)cc1` [Compound 43, 3-(4-Fluorophenyl)-5-(furan-2-yl)-N-(pyridin-2-ylmethyl)pyrazolo[1,5-a]pyrimidin-7-amine]: the MIC90 in data set [1] amounted to 0.96 mg/L (≈ 2.49 µM). Also, in data set [2], the “MIC90 LORA” value is under 0.13 mg/L. In data set [3], this molecule returned an IC50 of over 32 mg/L.
Regarding `C=Cc1cc(NCc2ccccn2)n2ncc(-c3ccc(F)cc3)c2n1` [Compound 24, 3-(4-Fluorophenyl)-N-(pyridin-2-ylmethyl)-5-vinylpyrazolo[1,5-a]pyrimidin-7-amine], the MIC90 in data set [1] is 1.48 mg/L (≈ 4.29 µM). Besides, the “MIC90 LORA” value in data set [2] was 0.47 mg/L (≈ 1.36 µM). Moreover, the IC50 in data set [3] turned out to be 17.2 mg/L (≈ 49.8 µM).
As for “N-((4-(2-(Dimethylamino)ethoxy)pyridin-2-yl)methyl)-3-(4-fluorophenyl)-5-phenylpyrazolo[1,5-a]pyrimidin-7-amine [Compound 58]”, in data set [1], the “MIC90 MABA” value turned out to be 4.7 mg/L. Moreover, the “MIC90 LORA” value in data set [2] came to 4.1 mg/L. Also, the “IC50 VERO” value in data set [3] is over 32 mg/L.

The values above are taken from article PMC9506485, “Synthesis and Structure–Activity Relationships for the Anti-Mycobacterial Activity of 3-Phenyl-N-(Pyridin-2-ylmethyl)Pyrazolo[1,5-a]Pyrimidin-7-Amines” (Pharmaceuticals, 2022).
